Structures can show the parent of a compound that is named as a salt.
What was measured:
Format in all cases: cell-based
pSLP76 [1] = test: Flow pSLP76
human CD3+ T cells = test: T cell assay (IL2 in supernatant, anti-CD3/anti-CD28 stimulation); conditions: for EC50: T-cell, 4 hours anti-CD3/anti-CD28, read-out: IL-2 EC50
Experimental: Cryo-preserved human CD3+ T cells are recovered in warm T cell media overnight. […] T cells are then left in a humidified incubator at 37° C. for 1 hour. […] Anti-CD28 antibody in T cell media is also added to the cells by Bravo liquid handler at 5 ug/mL or 1 μg/mL in a donor dependent manner. T cells are then incubated in a humidified incubator at 37° C. for 4 hours. […] IL2 is detected using a IL2 MultiCyt® QBeads® kit on an iQue Screener flow cytometer (Sartorius). Briefly, capture beads are diluted by 50× in the supplied capture bead diluent. […] Using a Bravo liquid handler, 10 ul cell culture supernatant is transferred to the v-bottom plate with diluted capture beads. The plate is then sealed in foil and incubate at room temperature on a plate shaker set to 900 rpm for 1 hour. At the end of incubation, 10 μL per well of the supplied detection reagent is added to the wells using a ThermoFisher multichannel pipette. The plate is then sealed in foil and incubate again at room temperature on a plate shaker set to 900 rpm for 2 hours before detection by iQue Screener. iQue Screener flow cytometer uses pre-configured analysis template supplied with the IL2 MultiCyt® QBeads® kit to detect IL2 in each sample wells.

pSLP76 [2] = test: WB pSLP76

| SMILES | EC50 (pSLP76 [1]) [nM] | Max IL-2 conc (human CD3+ T cells) [µM] | EC50 (human CD3+ T cells) [nM] | EC50 (pSLP76 [2]) [nM] |
| --- | --- | --- | --- | --- |
| CNc1nc(Nc2ccc(CN3C[C@H]4C[C@@H]3CO4)cc2F)c(C(N)=O)nc1-c1cncc2c1ncn2C [Example 146, 3-[2-Fluoro-4-[[(1R,4R)-2-oxa-5-azabicyclo[2.2.1]heptan-5-yl]methyl]anilino]-5-(methylamino)-6-(3-methylimidazo[4,5-c]pyridin-7-yl)pyrazine-2-carboxamide] | 65 | 0.37 | 23 |  |
| Cc1nn(C2COC2)cc1Nc1nc(C2CC2)c(-c2cncc3c2ncn3C)nc1C(N)=O [Example 224, 5-Cyclopropyl-6-(3-methylimidazo[4,5-c]pyridin-7-yl)-3-[[3-methyl-1-(oxetan-3-yl)pyrazol-4-yl]amino]pyrazine-2-carboxamide] |  | 3.33 | 120 |  |
| Cc1nn(CC(F)(F)F)cc1Nc1nc(C2CC2)c(-c2cncc3c2ncn3C)nc1C(N)=O [Example 213, 5-Cyclopropyl-6-(3-methylimidazo[4,5-c]pyridin-7-yl)-3-[[3-methyl-1-(2,2,2-trifluoroethyl)pyrazol-4-yl]amino]pyrazine-2-carboxamide] | 50 |  | 53 |  |
| CNc1nc(Nc2ccc(CN3CC4(COC4)C3)cc2Cl)c(C(N)=O)nc1-c1cncc2c1ncn2C [Example 148, 3-[2-Chloro-4-(2-oxa-6-azaspiro[3.3]heptan-6-ylmethyl)anilino]-5-(methylamino)-6-(3-methylimidazo[4,5-c]pyridin-7-yl)pyrazine-2-carboxamide formate salt] | 1080 | 3.33 | 325 |  |
| CNc1nc(Nc2cn(C3CCN(C)CC3)nc2C)c(C(N)=O)nc1-c1cccc2c1ncn2C [Example 206, 5-(Methylamino)-6-(1-methylbenzimidazol-4-yl)-3-[[3-methyl-1-(1-methyl-4-piperidyl)pyrazol-4-yl]amino]pyrazine-2-carboxamide formate salt] | 440 | 1.11 | 91 | 320 |
| CNc1nc(Nc2cn(C(C)(C)C#N)nc2C)c(C(N)=O)nc1-c1cncc2c1ncn2C [Example 211, 3-[[1-(1-Cyano-1-methyl-ethyl)-3-methyl-pyrazol-4-yl]amino]-5-(methylamino)-6-(3-methylimidazo[4,5-c]pyridin-7-yl)pyrazine-2-carboxamide] |  | 3.33 | 276 | 340 |

— patent US20240374606A1, “SUBSTITUTED PYRAZINE-2-CARBOXAMIDES AS HPK1 INHIBITORS FOR THE TREATMENT OF CANCER” (ASTRAZENECA AB, priority 2021, published 2024)
